The values below come from ChEMBL document CHEMBL5500339, “4-Hydroxy-2-pyridone derivatives with antitumor activity produced by mangrove endophytic fungus Talaromyces sp. CY-3” (Eur J Med Chem, 2024).

The subject of assay [1] is A549. Description: Cytotoxicity against human A549 cells assessed as reduction in cell viability incubated for 48 hrs by MTT assay. The format is functional, cell-based. The settings on record: A549, 48 h. Background: Tetrazolium dyes change colour on reduction, which living cells bring about.
For assay [2], the system named is MDA-MB-231. Description: Cytotoxicity against human MDA-MB-231 cells assessed as reduction in cell viability incubated for 48 hrs by MTT assay. The format is functional, cell-based. Conditions: MDA-MB-231, 48 h.
In assay [3] the test system is MDA-MB-435. Description: Cytotoxicity against human MDA-MB-435 cells assessed as reduction in cell viability incubated for 48 hrs by MTT assay. It counts as functional, cell-based. Conditions: MDA-MB-435, 48 h.
Assay [4] deals with SNB-19. Description: Cytotoxicity against human SNB-19 cells assessed as reduction in cell viability incubated for 48 hrs by MTT assay. It counts as functional, cell-based. The settings on record: SNB-19, 48 h.
Assay [5] concerns HCT-116. Description: Cytotoxicity against human HCT-116 cells assessed as reduction in cell viability incubated for 48 hrs by MTT assay. The format is functional, cell-based. Conditions: HCT-116, 48 h.
The subject of assay [6] is PC-3. Description: Cytotoxicity against human PC-3 cells assessed as reduction in cell viability incubated for 48 hrs by MTT assay. It counts as functional, cell-based. Conditions: PC-3, 48 h.
Assay [7] relates to A549. Description: Induction of cell cycle arrest in human A549 cells assessed as accumulation of cells at G1/G0 phase at 2 uM incubated for 24 hrs by flow cytometric analysis (reference value: 51.49 %). It counts as functional. (In general: In flow cytometry, cells or beads pass a laser one at a time.)
The test system of assay [8] is A549. Description: Induction of cell cycle arrest in human A549 cells assessed as accumulation of cells at S phase at 2 uM incubated for 24 hrs by flow cytometric analysis (reference value: 31.31 %). It counts as functional.
For assay [9], the system named is A549. Description: Induction of cell cycle arrest in human A549 cells assessed as accumulation of cells at G2/M phase at 2 uM incubated for 24 hrs by flow cytometric analysis (reference value: 17.2 %). The format is functional.
Assay [10] has as its system NCI-H1703. Description: Induction of cell cycle arrest in human NCI-H1703 cells assessed as accumulation of cells at G1/G0 phase at 2 uM incubated for 24 hrs by flow cytometric analysis (reference value: 42.06 %). It counts as functional.
For assay [11], the system named is NCI-H1703. Description: Induction of cell cycle arrest in human NCI-H1703 cells assessed as accumulation of cells at S phase at 2 uM incubated for 24 hrs by flow cytometric analysis (reference value: 28.06 %). The format is functional.
The subject of assay [12] is NCI-H1703. Description: Induction of cell cycle arrest in human NCI-H1703 cells assessed as accumulation of cells at G2/M phase at 2 uM incubated for 24 hrs by flow cytometric analysis (reference value: 29.88 %). It counts as functional.

Structures are written as SMILES.

A word on the IC50: it is the concentration that gives 50% inhibition. As to `C/C=C/[C@@H]1Oc2c(-c3ccccc3)c[nH]c(=O)c2[C@@H]2[C@H]1CCC[C@H]2C`, the IC50 is over 50 µM in [1]; over 50 µM in [2]; 29.5 µM in assay [3]; 13.4 µM in assay [4]; 16.8 µM in assay [5]; 36.1 µM in assay [6].
In the case of `CC(=O)c1c(C)c2cnc(Nc3ccc(N4CCNCC4)cn3)nc2n(C2CCCC2)c1=O` [PALBOCICLIB], the Activity in assay [7] came to 89.43%; in assay [8], 5.87%; in assay [9], 4.7%; in assay [10], 72.21%; in [11] it was 6.88%; in [12], 20.91%.
Consider `CC[C@H](C)C[C@@H](C)/C=C(\C)[C@@H]1O[C@H](c2c(O)c(-c3ccc(O)cc3)cn(C)c2=O)CC[C@]1(C)O`, for which the IC50 is 11.1 µM in [1]; 8.49 µM in assay [2]; 6.15 µM in assay [3]; over 50 µM in [4]; 10.5 µM in assay [5]; 8.1 µM in assay [6].
Consider `CC[C@H](C)C[C@@H](C)/C=C(\C)[C@@H]1O[C@H](c2c(O)c(-c3ccc(O)cc3)cn(C)c2=O)CC[C@H]1C`, for which the IC50 in [1] amounted to 14.9 µM; in assay [2], 14.9 µM; in assay [3], 9.41 µM; in [4] it was 9.04 µM; in assay [5] it was 7.74 µM; in assay [6] it was 43 µM.
Consider `CC[C@H](C)C[C@@H](C)/C=C(\C)[C@@H]1O[C@H](c2c(O)c(-c3ccccc3)cn(C)c2=O)CC[C@H]1C`, for which the IC50 in assay [1] amounted to 9.51 µM; in [2] it was 7.84 µM; in assay [3], 24.6 µM; in assay [4] it was 5.76 µM; in assay [5], 2.45 µM; in assay [6], 16.3 µM.
In the case of `CC[C@H](C)C[C@@H](C)/C=C(\C)[C@@H]1O[C@H](c2c(O)c(-c3ccc(O)cc3)cn(C)c2=O)CC[C@H]1CO`, the IC50 in [1] was 8.41 µM; in [2] it was over 50 µM; in assay [3], 2.3 µM; in assay [4], over 50 µM; in [5], 10.5 µM; in assay [6] it was over 50 µM.
Turning to `CC[C@H](C)C[C@@H](C)/C=C(\C)[C@@H]1O[C@H](c2c(O)c(-c3ccc(O)cc3)c[nH]c2=O)CC[C@H]1C`, the IC50 in assay [1] was 3.46 µM; in assay [2], 4.4 µM; in assay [3], 10 µM; in [4], over 50 µM; in assay [5] it was 2.51 µM; in assay [6], 6.65 µM.
For the compound `CC[C@H](C)C[C@@H](C)/C=C(\C)[C@@H]1O[C@H](c2c(O)c(-c3ccc(O)cc3)cn(C)c2=O)CC=C1C`, the IC50 was 48.9 µM in [1]; 43.1 µM in assay [2]; 34.9 µM in assay [3]; 40.4 µM in assay [4]; 29.2 µM in assay [5]; over 50 µM in [6].
Take `CC[C@H](C)C[C@@H](C)/C=C(\C)[C@@H]1O[C@H](c2c(O)c(-c3ccccc3O)cn(C)c2=O)CC[C@H]1C`: the IC50 in [1] is over 50 µM; in [2] it was 12.7 µM; in assay [3], 6.95 µM; in [4], over 50 µM; in [5], 7.57 µM; in [6] it was 18.6 µM.
Consider `CC[C@H](C)C[C@@H](C)/C=C(\C)[C@@H]1O[C@H](c2c(O)c(-c3ccccc3)c[nH]c2=O)CC[C@H]1C`, for which the IC50 was 3.89 µM in [1]; 5 µM in [2]; 7.29 µM in assay [3]; over 50 µM in assay [4]; over 50 µM in [5]; 11.4 µM in assay [6].
In the case of `CC[C@H](C)C[C@@H](C)/C=C(\C)[C@H]1O[C@@H](c2c(O)c(-c3ccccc3)c[nH]c2=O)CC=C1C`, the IC50 turned out to be 3.81 µM in [1]; 5.28 µM in assay [2]; 9.02 µM in assay [3]; 6.76 µM in assay [4]; 1.76 µM in assay [5]; 2.18 µM in [6].
`C/C=C/[C@@H]1Oc2c(-c3ccccc3)cn(O)c(=O)c2[C@@H]2[C@H]1CCC[C@H]2C`: the IC50 came out at 32.7 µM in assay [1]; 20.1 µM in [2]; 20.3 µM in assay [3]; 20.3 µM in [4]; 14.4 µM in assay [5]; 49.1 µM in assay [6].
